US9421211B2, “N,N′-diarylurea compounds and N,N′-diarylthiourea compounds as inhibitors of translation initiation” (President and Fellows of Harvard College, priority 2009, dated 2016)

Key:
[1] = system: eIF2α; assay: Phosphorylation of eIF2α in cells by Western blot (KLN-tTA/pBISA-DL(ATF-4), PC-3, CRL-2813); format: cell-based, mouse; human; conditions: CRL-2813, HRI siRNA
Source text: The amount of the eIF2.GTP.Met-tRNAi complex can be reduced by phosphorylation of eIF2α, reduced expression of Met-tRNAi, or eIF2α phosphorylation independent reduction in the activity of eIF2B, the eIF2 guanine nucleotide exchange factor. To determine which of these was the case, the effect of active N,N′-diarylureas on the phosphorylation of eIF2α was studied. […] To determine if the phosphorylation of eIF2α was responsible for reduced amount of the ternary complex in the cells treated with N,N′-diarylurea compounds, previously generated PC-3 human prostate cancer cell lines in which expression of endogenous eIF2α was replaced with recombinant wild type (WT) or non-phosphorylatable eIF2α-S51A were utilized.
Western blotting: Cell extracts were separated by SDS-PAGE and probed with anti-phosphoserine-51-eIF2 cc (PS51-eIF2α), anti-total eIF2α-specific antibodies […] (Biosource International, Hopkinton, Mass.), anti-CHOP, or anti β-actin (Santa Cruz Biotechnology, CA) as described.

[2] = target: T1, HRI (Oryctolagus cuniculus, UniProt P33279); assay: Phosphorylation of eIF2α in heme-supplemented rabbit reticulocyte lysate; format: biochemical; conditions: 30 minutes at 37° C.
T1 construct: from tissue; host or cells: rabbit reticulocyte lysate, heme supplemented
T1 sequence (P33279 whole entry): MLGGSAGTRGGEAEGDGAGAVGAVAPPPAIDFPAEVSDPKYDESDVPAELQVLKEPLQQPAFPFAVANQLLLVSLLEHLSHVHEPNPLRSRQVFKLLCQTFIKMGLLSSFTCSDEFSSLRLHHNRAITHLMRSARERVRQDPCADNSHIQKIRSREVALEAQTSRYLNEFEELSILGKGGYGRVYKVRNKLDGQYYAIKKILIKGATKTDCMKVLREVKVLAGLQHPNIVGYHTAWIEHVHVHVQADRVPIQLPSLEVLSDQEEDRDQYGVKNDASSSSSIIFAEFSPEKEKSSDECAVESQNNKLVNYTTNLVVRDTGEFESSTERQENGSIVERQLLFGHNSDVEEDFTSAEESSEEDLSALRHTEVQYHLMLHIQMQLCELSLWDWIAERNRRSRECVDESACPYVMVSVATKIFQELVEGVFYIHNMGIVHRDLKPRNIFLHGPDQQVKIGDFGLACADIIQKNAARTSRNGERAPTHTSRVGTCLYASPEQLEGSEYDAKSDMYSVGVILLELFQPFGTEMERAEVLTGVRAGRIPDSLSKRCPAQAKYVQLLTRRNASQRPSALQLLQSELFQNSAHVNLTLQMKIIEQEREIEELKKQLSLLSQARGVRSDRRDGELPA
Experimental: (§1) FIGS. 14A and 14B depict that N,N′-diarylurea compounds activate HRI in cell free lysates. A and B) Heme supplemented rabbit reticulocyte (a) or in-house prepared human melanoma cancer cell lysates (b) were incubated with the indicated concentration of compound 1781 for 30 minutes at 37° C. and phosphorylation of eIF2α was determined by Western blot analysis.
(§2) Compound #1781 was added to lysates of CRL-2813 cells or heme-supplemented rabbit reticulocytes and phosphorylation of eIF2α by Western blot was determined.

[3] = system: CHOP mRNA; assay: Endogenous CHOP mRNA by real-time PCR in KLN-tTA/pBISA-DL(ATF-4) cells; format: cell-based, mouse; conditions: siRNA to HRI, also CRL-2813 cells
Source text: (§3) For example, reducing amount of the ternary complex increases translation of ATF-4, which results in elevated expression of CHOP mRNA and protein. Therefore, expression of endogenous CHOP mRNA and CHOP protein in KLN-tTA/pBISA-DL^(ATF-4) cells were utilized as secondary assays to validate N,N′-diarylurea compounds as modifiers of the eIF2.GTP.Met-tRNAi ternary complex. […] To rule out the possibility that the activity of N,N′-diarylurea compounds was confined to a single cell type, the effects of these compounds on the ternary complex assay and the expression of CHOP mRNA was assayed in CRL-2351, PC-3, CRL-2813 human breast, prostate, and melanoma cancer cell lines respectively. For the reporter gene assay, the three human cell lines were co-transfected with tTA expression vector and the pBISA-DL^(ATF-4) dual luciferase expression vector shown in FIG. 6. […] The expression of CHOP mRNA was assayed by real time PCR in the same cell lines treated with 5 or 20 μM of each compound.
Real time PCR: For real time PCR, total RNA was extracted with TaqMan Gene Expression Cells-to-Ct™ Kit (Applied Biosystems, Branchburg, N.J.) according to manufacturer's protocol. Contaminating DNA was removed by DNase I treatment. […] To calibrate the results, all the transcripts quantities were normalized to 18S rRNA (was 18S ribosomal RNA-like mRNA in mouse). […]

[4] = target: T2, HRI (Homo sapiens, UniProt Q9BQI3); assay: Phosphorylation of eIF2α in CRL-2813 human melanoma cell lysate; format: biochemical; conditions: CRL-2813 cell lysate, 30 minutes at 37° C.
T2 construct: endogenous in cells; host or cells: CRL-2813 human melanoma cells (lysate prepared in house)
T2 sequence (Q9BQI3 whole entry): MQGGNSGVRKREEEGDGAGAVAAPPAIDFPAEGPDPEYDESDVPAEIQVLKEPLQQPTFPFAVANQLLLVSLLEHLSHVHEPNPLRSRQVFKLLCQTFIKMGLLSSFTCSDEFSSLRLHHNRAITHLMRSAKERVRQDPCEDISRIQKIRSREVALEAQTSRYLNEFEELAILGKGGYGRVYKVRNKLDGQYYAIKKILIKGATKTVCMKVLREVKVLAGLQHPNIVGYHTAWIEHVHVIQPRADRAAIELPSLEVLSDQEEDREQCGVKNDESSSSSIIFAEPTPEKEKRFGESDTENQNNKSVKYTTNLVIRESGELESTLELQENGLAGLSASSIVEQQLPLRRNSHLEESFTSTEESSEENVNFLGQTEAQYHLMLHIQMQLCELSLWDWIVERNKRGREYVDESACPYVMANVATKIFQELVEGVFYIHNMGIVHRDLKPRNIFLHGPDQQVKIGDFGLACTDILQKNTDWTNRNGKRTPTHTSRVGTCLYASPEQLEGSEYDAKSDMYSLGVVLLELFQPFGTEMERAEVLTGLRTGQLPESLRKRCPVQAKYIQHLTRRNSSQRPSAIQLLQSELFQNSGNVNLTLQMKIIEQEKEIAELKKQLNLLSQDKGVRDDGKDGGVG
Experimental: as §1, §2

[5] = In vivo toxicity, seven day administration to mice; conditions: seven consecutive days, up to 200 mg/kg
Experimental: Five female nude mice each were treated with 200 mg/kg, 100 mg/kg #1781 in 15 μl DMSO or 15 μl DMSO daily for seven days. Mice were observed daily for signs of toxicity and weighed every other day for total of 15 days and then necropsy was performed. The average body of each group is plotted against the time.
To study toxicity effects, mice were treated with various doses of compound #1781 or vehicle.

[6] = system: eIF2.GTP.Met-tRNAi ternary complex; assay: Ternary complex assay: dual luciferase F-luc/R-luc ratio in KLN-tTA/pBISA-DL(ATF-4) cells (HTS screen, 96-well hit confirmation, dose response); format: cell-based, mouse; conditions: siRNA to PKR, PERK, GCN2; also CRL-2813 cells
Source text: For assay development, a bi-directional plasmid was designed in which a common promoter/enhancer complex drives the transcription of firefly luciferase (F-luc) ORF fused to the 5′ untranslated region (UTR) of ATF-4, and of the renilla luciferase (R-luc) ORF fused to a 90-nucleotide 5′ UTR derived from the plasmid (FIG. 6A). Because the tetracycline-regulated transactivator ((tTA), required for driving transcription from this vector) is not normally expressed in the mammalian cells, stable KLN cancer cells were constructed that expressed tTA (KLN-tTA).
The KLN-tTA colonies that drove expression of reporter genes from pBISA-DL plasmid were selected by transient transfection and dual luciferase assay. One of these KLN-tTA cell lines was transfected with the pBISA-DL^(ATF-4) expression vector, stable colonies were selected by dual luciferase assay and expanded. To determine if reduced availability of the eIF2.GTP.Met-tRNAi ternary complex increased the translation of firefly luciferase and decreased translation of renilla luciferase, selected KLN-tTA/pBISA-DL^(ATF-4) colonies were treated with thapsigargin (TG) or tunicamycin (TU), two agents known to cause phosphorylation of eIF2α.
This assay was then adapted for high throughput screening in 96 and 384 well plates. This was done by evaluating the cell density, length of exposure to compounds, DMSO tolerance and optimum firefly and renilla substrate. We then challenged these cells with thapsigargin or DMSO. […] Cell-based assays usually have higher variation than homogeneous in vitro assays due to position effect in the plate, and other variables associated with handling of cells and the plates.
Screening was conducted in 384 well white opaque plates (Nalge Nunc), 100 μl volume RPMI+10% fetal bovine serum. Cells were plated at the sub-confluent density of 10,000 cells/well, and allowed to attach for a period of 16-18 hours at 37° C., 5% CO2. Compounds were added as 1 μl of a 1 mM DMSO stock solution for a final screening concentration of […] using low-volume tips for transfer (Molecular Bioproducts). Cells were then incubated in the presence of compound for an additional sixteen hours, again at 37° C., 5% CO2. Following incubation 70 μl of the culture medium was removed from each well to allow for reagent addition and plates were allowed to equilibrate to room temperature for thirty minutes. Firefly luciferase reporter activity was then read by the addition of thirty microliters of Dual Glo Luciferase reagent (Promega), followed by one hour incubation at room temperature to allow for adequate signal buildup. Luminescence counting was conducted on a Microbeta Trilux using a 1 second read time. Renilla luciferase reporter activity was measured following addition of 30 μl Stop and Glo Luciferase reagent (Promega) and incubation identical to the one carried out for the firefly luciferase one.
Compound scores were interpreted as firefly luciferase activity divided by renilla luciferase activity, normalized to the plate's DMSO control. […] All data analysis was conducted using the BioAssay HTS software package (CambridgeSoft).
102,709 compounds in the NCI Open Chemical Repository were then screened using this HTS assay. […] Initial hits were confirmed by repeating the same dual luciferase assay in 96 well plates. Briefly, 20,000 cells/well were plated in triplicate for each concentration (10, 5 and 2.5 μM) of the compounds.

[7] = system: CRL-2351 human breast cancer cells; assay: Cell proliferation SRB assay, CRL-2351; format: cell-based; conditions: Homo sapiens; 2351 cells; read-out: IC50 (μM) by SRB assay, 2351
Experimental: (§4) Reduced availability of the ternary complex causes inhibition of translation initiation and thereby of cell proliferation. […] The effects of N,N′-diarylureas on the proliferation KLN mouse squamous cell carcinoma, CRL-2351 human breast, CRL-2813 human melanoma, A549 human lung and PC-3 human prostate cancer cell lines were tested.
(§5) Cell Growth Assay: Cell Growth was Measured by the SRB Assay.

[8] = system: CRL-2813 human melanoma cells; assay: Cell proliferation SRB assay, CRL-2813; format: cell-based; conditions: CRL2813, 2813 cells, read-out: IC50 (μM) by SRB assay, 2813
Experimental: as §4, with “tested. […]” for “tested.”
as §5

[9] = system: KLN mouse squamous cell carcinoma cells; assay: Cell proliferation SRB assay, KLN; format: cell-based; conditions: KLN cells, read-out: IC50 (μM) by SRB assay, KLN
Experimental: as §4, §5

[10] = Solubility observed at purification; format: physicochemical; conditions: solvents tried for purification
Experimental: Because it could not be purified, this compound was removed from the structure-activity relationship (SAR) study.
As another non-limiting example, 3,4-dichlorophenylisocyanate (250 mg, 1.330 mmol) and 2-amino-4-hydroxy-6-methylpyrimidine (166 mg, 1.330 mmol) were used following the general procedure E to synthesize 28.

[11] = system: eIF2.GTP.Met-tRNAi ternary complex; assay: ATF-4 assay (firefly/renilla luciferase ratio) in CRL-2351 cell line; format: cell-based, human
Source text: as §3
Stable and transient transfection: Cells were seeded at the density of 10^5 in 60-mm (stable transfection) or 10^4 cells per well of 96-well plate (transient transfection) plates and transfected one day later using the Qiagen Transfectamine transfection kit. For selection of stable cell lines, transfected cells were transferred to 100-mm plates and selected with appropriate antibiotics.
Dual luciferase assay: Cells or minced tumors expressing firefly and renilla luciferases were lysed and the extracts assayed with a glow type dual luciferase assay kit, per manufacturer's instruction (Promega Inc., Madison, Wis.).

| IC50 [7] [µM] | IC50 [8] [µM] | IC50 [9] [µM] | Solubility [10] | Cmax ([11]; read-out: ATF-4 Cmax (μM): concentration corresponding to the maximal activity) [µM] | SMILES | Induction of eIF2α phosphorylation by the compound after silencing of HRI [1] | Phosphorylation of eIF2α in cell lysates [2] | Induction of CHOP mRNA by the compound after knocking down HRI [3] | Phosphorylation of eIF2α in cell lysates [4] | Effect on weight gain or food consumption of mice [5] | Induction of F-luc/R-luc ratio by the compound after knocking down PKR, PERK or GCN2 [6] | maximal fold induction ([11]; Homo sapiens, read-out: ATF-4 Amax: maximal activity, ratio of firefly over renilla luciferase expression) | EC (activity threshold of 5) ([11]; Homo sapiens, read-out: ATF-4 C[5] (μM): concentration corresponding to an activity threshold of 5) [µM] |
| --- | --- | --- | --- | --- | --- | --- | --- | --- | --- | --- | --- | --- | --- |
| – | – | – | – | – | O=C(Nc1ccc(Cl)c(Cl)c1)Nc1ccc2nnsc2c1 [#1781] | reduced | caused phosphorylation of eIF2α | abrogated | caused phosphorylation of eIF2α | no adverse effect | no effect | – | – |
| 0.7 | 0.7 | 15 | not soluble in any solvent | 40 | O=C(Nc1cc(C(F)(F)F)cc(C(F)(F)F)c1)Nc1ncccc1O [Compound 28] | – | – | – | – | – | – | 5 | 40 |
